ChEMBL document CHEMBL4251634, “Synthesis and antimicrobial activity of pyrimidinyl 1,3,4-oxadiazoles, 1,3,4-thiadiazoles and 1,2,4-triazoles” (2018)
Calls of active or inactive are those of the source. The rule behind the calls is not given here.

Assays:
Type in all cases: functional
Aspergillus niger [1] = test: Antifungal activity against Aspergillus niger after 48 hrs by turbidity-based broth dilution assay
Aspergillus niger [2] = test: Antifungal activity against Aspergillus niger assessed as diameter of inhibition zone at 12.5 ug/well after 48 hrs by agar well diffusion method; conditions: for zone of inhibition at 12.5 µg/disc: read-out: DIZ
Aspergillus niger [3] = test: Antifungal activity against Aspergillus niger assessed as diameter of inhibition zone at 25 ug/well after 48 hrs by agar well diffusion method; conditions: for zone of inhibition at 25 µg/disc: read-out: DIZ
Penicillium chrysogenum [4] = test: Antifungal activity against Penicillium chrysogenum after 48 hrs by turbidity-based broth dilution assay
Penicillium chrysogenum [5] = test: Antifungal activity against Penicillium chrysogenum assessed as diameter of inhibition zone at 50 ug/well after 48 hrs by agar well diffusion method; conditions: for zone of inhibition at 50 µg/disc: read-out: DIZ
Penicillium chrysogenum [6] = test: Antifungal activity against Penicillium chrysogenum assessed as diameter of inhibition zone at 25 ug/well after 48 hrs by agar well diffusion method; conditions: for zone of inhibition at 25 µg/disc: read-out: DIZ
Aspergillus niger [7] = test: Antifungal activity against Aspergillus niger assessed as diameter of inhibition zone at 100 ug/well after 48 hrs by agar well diffusion method; conditions: for zone of inhibition at 100 µg/disc: read-out: DIZ
Aspergillus niger [8] = test: Antifungal activity against Aspergillus niger assessed as diameter of inhibition zone at 50 ug/well after 48 hrs by agar well diffusion method; conditions: for zone of inhibition at 50 µg/disc: read-out: DIZ
Penicillium chrysogenum [9] = test: Antifungal activity against Penicillium chrysogenum assessed as diameter of inhibition zone at 100 ug/well after 48 hrs by agar well diffusion method; conditions: for zone of inhibition at 100 µg/disc: read-out: DIZ
Penicillium chrysogenum [10] = test: Antifungal activity against Penicillium chrysogenum assessed as diameter of inhibition zone at 12.5 ug/well after 48 hrs by agar well diffusion method; conditions: for zone of inhibition at 12.5 µg/disc: read-out: DIZ
Staphylococcus aureus [11] = test: Antibacterial activity against Staphylococcus aureus assessed as diameter of inhibition zone at 25 ug/well after 24 hrs by agar well diffusion method; conditions: for zone of inhibition at 25 µg/disc: read-out: DIZ
Klebsiella pneumoniae [12] = test: Antibacterial activity against Klebsiella pneumoniae assessed as diameter of inhibition zone at 12.5 ug/well after 24 hrs by agar well diffusion method; conditions: for zone of inhibition at 12.5 µg/disc: read-out: DIZ
Bacillus subtilis [13] = test: Antibacterial activity against Bacillus subtilis assessed as diameter of inhibition zone at 25 ug/well after 24 hrs by agar well diffusion method; conditions: for zone of inhibition at 25 µg/disc: read-out: DIZ
Pseudomonas aeruginosa [14] = test: Antibacterial activity against Pseudomonas aeruginosa assessed as diameter of inhibition zone at 25 ug/well after 24 hrs by agar well diffusion method; conditions: for zone of inhibition at 25 µg/disc: read-out: DIZ
Klebsiella pneumoniae [15] = test: Antibacterial activity against Klebsiella pneumoniae assessed as diameter of inhibition zone at 25 ug/well after 24 hrs by agar well diffusion method; conditions: for zone of inhibition at 25 µg/disc: read-out: DIZ
Klebsiella pneumoniae [16] = test: Antibacterial activity against Klebsiella pneumoniae assessed as diameter of inhibition zone at 100 ug/well after 24 hrs by agar well diffusion method; conditions: for zone of inhibition at 100 µg/disc: read-out: DIZ
Pseudomonas aeruginosa [17] = test: Antibacterial activity against Pseudomonas aeruginosa assessed as diameter of inhibition zone at 12.5 ug/well after 24 hrs by agar well diffusion method; conditions: for zone of inhibition at 12.5 µg/disc: read-out: DIZ
Klebsiella pneumoniae [18] = test: Antibacterial activity against Klebsiella pneumoniae assessed as diameter of inhibition zone at 50 ug/well after 24 hrs by agar well diffusion method; conditions: for zone of inhibition at 50 µg/disc: read-out: DIZ
Bacillus subtilis [19] = test: Antibacterial activity against Bacillus subtilis assessed as diameter of inhibition zone at 100 ug/well after 24 hrs by agar well diffusion method; conditions: for zone of inhibition at 100 µg/disc: read-out: DIZ
Staphylococcus aureus [20] = test: Antibacterial activity against Staphylococcus aureus assessed as diameter of inhibition zone at 50 ug/well after 24 hrs by agar well diffusion method; conditions: for zone of inhibition at 50 µg/disc: read-out: DIZ
Pseudomonas aeruginosa [21] = test: Antibacterial activity against Pseudomonas aeruginosa assessed as diameter of inhibition zone at 100 ug/well after 24 hrs by agar well diffusion method; conditions: for zone of inhibition at 100 µg/disc: read-out: DIZ
Pseudomonas aeruginosa [22] = test: Antibacterial activity against Pseudomonas aeruginosa assessed as diameter of inhibition zone at 50 ug/well after 24 hrs by agar well diffusion method; conditions: for zone of inhibition at 50 µg/disc: read-out: DIZ
Bacillus subtilis [23] = test: Antibacterial activity against Bacillus subtilis assessed as diameter of inhibition zone at 50 ug/well after 24 hrs by agar well diffusion method; conditions: for zone of inhibition at 50 µg/disc: read-out: DIZ
Staphylococcus aureus [24] = test: Antibacterial activity against Staphylococcus aureus assessed as diameter of inhibition zone at 100 ug/well after 24 hrs by agar well diffusion method; conditions: for zone of inhibition at 100 µg/disc: read-out: DIZ
Bacillus subtilis [25] = test: Antibacterial activity against Bacillus subtilis assessed as diameter of inhibition zone at 12.5 ug/well after 24 hrs by agar well diffusion method; conditions: for zone of inhibition at 12.5 µg/disc: read-out: DIZ
Staphylococcus aureus [26] = test: Antibacterial activity against Staphylococcus aureus assessed as diameter of inhibition zone at 12.5 ug/well after 24 hrs by agar well diffusion method; conditions: for zone of inhibition at 12.5 µg/disc: read-out: DIZ
Pseudomonas aeruginosa [27] = test: Antibacterial activity against Pseudomonas aeruginosa after 24 hrs by turbidity-based broth dilution assay
Staphylococcus aureus [28] = test: Antibacterial activity against Staphylococcus aureus after 24 hrs by turbidity-based broth dilution assay
Klebsiella pneumoniae [29] = test: Antibacterial activity against Klebsiella pneumoniae after 24 hrs by turbidity-based broth dilution assay

SMILES | zone of inhibition at 12.5 µg/disc (Aspergillus niger [2]) | zone of inhibition at 25 µg/disc (Aspergillus niger [3]) | zone of inhibition at 50 µg/disc (Penicillium chrysogenum [5]) | zone of inhibition at 100 µg/disc (Aspergillus niger [7]) | zone of inhibition at 50 µg/disc (Aspergillus niger [8]) | zone of inhibition at 100 µg/disc (Penicillium chrysogenum [9]) | zone of inhibition at 12.5 µg/disc (Klebsiella pneumoniae [12]) | zone of inhibition at 25 µg/disc (Pseudomonas aeruginosa [14]) | zone of inhibition at 25 µg/disc (Klebsiella pneumoniae [15]) | zone of inhibition at 100 µg/disc (Klebsiella pneumoniae [16]) | zone of inhibition at 12.5 µg/disc (Pseudomonas aeruginosa [17]) | zone of inhibition at 50 µg/disc (Klebsiella pneumoniae [18]) | zone of inhibition at 100 µg/disc (Bacillus subtilis [19]) | zone of inhibition at 100 µg/disc (Pseudomonas aeruginosa [21]) | zone of inhibition at 50 µg/disc (Pseudomonas aeruginosa [22]) | diameter of the inhibition zone (DIZ) (Staphylococcus aureus [11]) | diameter of the inhibition zone (DIZ) (Staphylococcus aureus [20]) | diameter of the inhibition zone (DIZ) (Staphylococcus aureus [24]) | diameter of the inhibition zone (DIZ) (Bacillus subtilis [25]) | diameter of the inhibition zone (DIZ) (Staphylococcus aureus [26]) | further results
CC(=O)N1CCN(c2ccc(OCC3COC(Cn4ccnc4)(c4ccc(Cl)cc4Cl)O3)cc2)CC1 (stereo not drawn) [KETOCONAZOLE] | 29 mm | 31 mm | 37 mm | 37 mm | 34 mm | 39 mm | – | – | – | – | – | – | – | – | – | – | – | – | – | – | MIC (Aspergillus niger [1]): 6.25 µg; MIC (Penicillium chrysogenum [4]): 12.5 µg; zone of inhibition at 25 µg/disc (Penicillium chrysogenum [6]): 36 mm; zone of inhibition at 12.5 µg/disc (Penicillium chrysogenum [10]): 34 mm
Cc1cc(SCc2nnc(-c3ccccc3)s2)nc(SCc2nnc(-c3ccccc3)s2)n1 | 15 mm | 17 mm | 12 mm | 22 mm | 19 mm | 14 mm | 20 mm | 19 mm | 21 mm | 26 mm | 15 mm | 23 mm | 18 mm | 24 mm | 20 mm | – | – | – | – | – | zone of inhibition at 25 µg/disc (Staphylococcus aureus [11]): 11 mm; zone of inhibition at 25 µg/disc (Bacillus subtilis [13]): 13 mm; zone of inhibition at 50 µg/disc (Staphylococcus aureus [20]): 12 mm; zone of inhibition at 25 µg/disc (Penicillium chrysogenum [6]): 10 mm; zone of inhibition at 50 µg/disc (Bacillus subtilis [23]): 15 mm; zone of inhibition at 100 µg/disc (Staphylococcus aureus [24]): 13 mm; zone of inhibition at 12.5 µg/disc (Penicillium chrysogenum [10]): 9 mm; zone of inhibition at 12.5 µg/disc (Bacillus subtilis [25]): 11 mm; zone of inhibition at 12.5 µg/disc (Staphylococcus aureus [26]): 10 mm
Cc1ccc(-c2nnc(CSc3cc(C)nc(SCc4nnc(-c5ccc(C)cc5)o4)n3)o2)cc1 | – | – | – | 9 mm | 7 mm | – | – | 8 mm | – | 10 mm | – | 8 mm | – | 12 mm | 10 mm | inactive | inactive | inactive | inactive | inactive | diameter of the inhibition zone (DIZ) (Klebsiella pneumoniae [12]): inactive; diameter of the inhibition zone (DIZ) (Bacillus subtilis [13]): inactive; diameter of the inhibition zone (DIZ) (Klebsiella pneumoniae [15]): inactive; diameter of the inhibition zone (DIZ) (Pseudomonas aeruginosa [17]): inactive; diameter of the inhibition zone (DIZ) (Aspergillus niger [2]): inactive; diameter of the inhibition zone (DIZ) (Aspergillus niger [3]): inactive; diameter of the inhibition zone (DIZ) (Bacillus subtilis [19]): inactive; diameter of the inhibition zone (DIZ) (Penicillium chrysogenum [5]): inactive; diameter of the inhibition zone (DIZ) (Penicillium chrysogenum [6]): inactive; diameter of the inhibition zone (DIZ) (Bacillus subtilis [23]): inactive; diameter of the inhibition zone (DIZ) (Penicillium chrysogenum [9]): inactive; diameter of the inhibition zone (DIZ) (Penicillium chrysogenum [10]): inactive
Cc1cc(SCc2nnc(-c3ccc(Cl)cc3)o2)nc(SCc2nnc(-c3ccc(Cl)cc3)o2)n1 | 18 mm | 20 mm | 15 mm | 25 mm | 22 mm | 17 mm | 10 mm | 12 mm | 11 mm | 16 mm | 10 mm | 13 mm | 9 mm | 17 mm | 14 mm | inactive | inactive | inactive | inactive | inactive | diameter of the inhibition zone (DIZ) (Bacillus subtilis [13]): inactive; zone of inhibition at 25 µg/disc (Penicillium chrysogenum [6]): 13 mm; zone of inhibition at 50 µg/disc (Bacillus subtilis [23]): 7 mm; zone of inhibition at 12.5 µg/disc (Penicillium chrysogenum [10]): 11 mm
O=C(N[C@H](CO)[C@H](O)c1ccc([N+](=O)[O-])cc1)C(Cl)Cl [CHLORAMPHENICOL] | – | – | – | – | – | – | 38 mm | 27 mm | 40 mm | 44 mm | 25 mm | 42 mm | 40 mm | 32 mm | 29 mm | – | – | – | – | – | zone of inhibition at 25 µg/disc (Staphylococcus aureus [11]): 32 mm; zone of inhibition at 25 µg/disc (Bacillus subtilis [13]): 34 mm; MIC (Pseudomonas aeruginosa [27]): 6.25 µg; MIC (Staphylococcus aureus [28]): 6.25 µg; zone of inhibition at 50 µg/disc (Staphylococcus aureus [20]): 35 mm; MIC (Klebsiella pneumoniae [29]): 12.5 µg; zone of inhibition at 50 µg/disc (Bacillus subtilis [23]): 36 mm; zone of inhibition at 100 µg/disc (Staphylococcus aureus [24]): 37 mm; zone of inhibition at 12.5 µg/disc (Bacillus subtilis [25]): 32 mm; zone of inhibition at 12.5 µg/disc (Staphylococcus aureus [26]): 30 mm
COc1ccc(-c2nnc(CSc3cc(C)nc(SCc4nnc(-c5ccc(OC)cc5)o4)n3)o2)cc1 | – | – | – | – | – | – | – | – | – | – | – | – | – | – | – | inactive | inactive | inactive | inactive | inactive | diameter of the inhibition zone (DIZ) (Klebsiella pneumoniae [12]): inactive; diameter of the inhibition zone (DIZ) (Bacillus subtilis [13]): inactive; diameter of the inhibition zone (DIZ) (Pseudomonas aeruginosa [14]): inactive; diameter of the inhibition zone (DIZ) (Klebsiella pneumoniae [15]): inactive; diameter of the inhibition zone (DIZ) (Klebsiella pneumoniae [16]): inactive; diameter of the inhibition zone (DIZ) (Pseudomonas aeruginosa [17]): inactive; diameter of the inhibition zone (DIZ) (Aspergillus niger [2]): inactive; diameter of the inhibition zone (DIZ) (Aspergillus niger [3]): inactive; diameter of the inhibition zone (DIZ) (Klebsiella pneumoniae [18]): inactive; diameter of the inhibition zone (DIZ) (Bacillus subtilis [19]): inactive; diameter of the inhibition zone (DIZ) (Penicillium chrysogenum [5]): inactive; diameter of the inhibition zone (DIZ) (Penicillium chrysogenum [6]): inactive; diameter of the inhibition zone (DIZ) (Pseudomonas aeruginosa [21]): inactive; diameter of the inhibition zone (DIZ) (Pseudomonas aeruginosa [22]): inactive; diameter of the inhibition zone (DIZ) (Aspergillus niger [7]): inactive; diameter of the inhibition zone (DIZ) (Bacillus subtilis [23]): inactive; diameter of the inhibition zone (DIZ) (Aspergillus niger [8]): inactive; diameter of the inhibition zone (DIZ) (Penicillium chrysogenum [9]): inactive; diameter of the inhibition zone (DIZ) (Penicillium chrysogenum [10]): inactive
Cc1ccc(-c2nnc(CSc3cc(C)nc(SCc4nnc(-c5ccc(C)cc5)n4N)n3)n2N)cc1 | 10 mm | 12 mm | 8 mm | 16 mm | 14 mm | 10 mm | 12 mm | 11 mm | 13 mm | 18 mm | 9 mm | 15 mm | 11 mm | 18 mm | 14 mm | inactive | inactive | inactive | inactive | inactive | zone of inhibition at 25 µg/disc (Bacillus subtilis [13]): 7 mm; diameter of the inhibition zone (DIZ) (Penicillium chrysogenum [6]): inactive; zone of inhibition at 50 µg/disc (Bacillus subtilis [23]): 9 mm; diameter of the inhibition zone (DIZ) (Penicillium chrysogenum [10]): inactive
Cc1cc(SCc2nnc(-c3ccc(Br)cc3)o2)nc(SCc2nnc(-c3ccc(Br)cc3)o2)n1 | 13 mm | 15 mm | 9 mm | 19 mm | 17 mm | 11 mm | 8 mm | 11 mm | 10 mm | 15 mm | 9 mm | 12 mm | 8 mm | 15 mm | 13 mm | inactive | inactive | inactive | inactive | inactive | diameter of the inhibition zone (DIZ) (Bacillus subtilis [13]): inactive; zone of inhibition at 25 µg/disc (Penicillium chrysogenum [6]): 7 mm; diameter of the inhibition zone (DIZ) (Bacillus subtilis [23]): inactive; diameter of the inhibition zone (DIZ) (Penicillium chrysogenum [10]): inactive
